Key:
[1] = system: yeast stress response genes; settings: MMS 0.1%; published data; cited from earlier work
Wildtype strain [2] = assay: HSP26 promoter GFP-uv reporter stress response, fluorimeter; format: cell-based, Saccharomyces cerevisiae; parameters: key: F = fluorescent activity from hsp reporter construct, indicating stress response is induced; NF = no fluorescence, no induction of stress response; settings: predicted expectations
Excerpt: (§1) Stress response gene reporter constructs are generally constructed as follows: approximately 500 bp to approximately 1,000 bp or more region upstream of the first start codon of the stress gene of interest (the region encompassing the stress response gene promoter) is fused to the coding region of a reporter polypeptide (e.g., GFP-uv in pRS316 (Sikorski and Hieter (1989) Genetics 122(1):19-27, Clontech). In a specific exemplary construct, approximately 500 bp of the sequence upstream of the hsp26 gene were ligated to the coding region of GFP-uv in pRS316 to provide for expression of the GFP-uv reporter polypeptide under control of the HSP26 promoter.
(§2) The above-described HSP26 construct and a control construct (containing no upstream HSP26 promoter sequence) is transformed into 4 strains: a wildtype strain and strains heterozygous for ALG7, HIS3, and TUB2. The his3 heterozygous strain is sensitive to 3-amino triazole; the alg7 heterozygous strain is sensitive to tunicamycin; and the tub2 heterozygous strain is sensitive to benomyl. The expression of hsp26 activity is then monitored using a fluorimeter. Comparisons (with predicted expectations) are as follows: […]

his3 heterozygote = assay: as above; format: cell-based, Saccharomyces cerevisiae; parameters: key: F = fluorescent activity from hsp reporter construct, indicating stress response is induced; NF = no fluorescence, no induction of stress response; settings: predicted expectations
Excerpt: as §1
(§3) 80% of all heterozygous deletion strains of Saccharomyces cerevisiae have been constructed. Heterozygous deletion strains were generated using homologous gene transplacement (Rothstein, R. (1991) Meth. Enzymol. 194:281-301) in wild-type diploid strains using standard methods. The resulting heterozygotes carry a deletion in one of the two copies of a given gene.
as §2

tub2 heterozygote = assay: as above; format: cell-based, Saccharomyces cerevisiae; parameters: key: F = fluorescent activity from hsp reporter construct, indicating stress response is induced; NF = no fluorescence, no induction of stress response; settings: predicted expectations
Excerpt: as §1, §3, §2

alg7 heterozygote = assay: as above; format: cell-based, Saccharomyces cerevisiae; parameters: key: F = fluorescent activity from hsp reporter construct, indicating stress response is induced; NF = no fluorescence, no induction of stress response; settings: predicted expectations
Excerpt: as §1, §3, §2

tub2 heterozygous strain = settings: cited from earlier work
Wildtype strain [3] = assay: Microarray fold transcriptional induction of stress response genes; format: cell-based, Saccharomyces cerevisiae
Protocol: (§4) In order to identify stress response genes suitable for use in the methods of the present invention, the induction of various stress response genes was tested using microarrays. Three 50 ml cultures were grown at 30° C., a wildtype strain, an alg7 heterozygous strain, and a ymr007w heterozygous strain (the ymr007w strain has been previously shown to be sensitive to tunicamycin, see Giaever, G. et al. (1999) Nature Genet. 21(3):278-283). The wildtype strain was grown in the absence of drug as well as in the presence of […] tunicamycin at an O.D.600 of 1, or approximately 2×10^7 cells/ml for one hour. The alg7 and ymr007w heterozygotes were grown in the presence of […] tunicamycin at an O.D.600 of 1, or approximately 2×10^7 cells/ml for 1 hour. mRNA was then collected from all four samples using standard techniques. cDNA was then prepared from […] of polyadenylated RNA from each sample, using a dT21 primer and Superscript II reverse transcriptase (GibcoBRL) according to manufacturer's recommendation. cDNA was fragmented using DNAseI (GibcoBRL), biotinylated using ddATP (NEN) and Terminal Transferase (Boehringer), and hybridized to yeast full genome arrays (Affymetrix) as described in L. Wodicka et al. (1997) Nature Biotechnol. 15, 1359-1367. Data was analyzed using Affymetrix software.
The fold induction of the indicated stress response gene is relative to expression levels in the absence of exposure to the indicated stimuli for the wildtype strain.

ymr007w strain = settings: previously shown, Giaever et al. 1999; cited from earlier work
alg7 heterozygous strain [4] = settings: cited from earlier work
alg7 heterozygous strain [5] = assay: Microarray fold transcriptional induction of stress response genes; format: cell-based, Saccharomyces cerevisiae; settings: alg7 heterozygote, tunicamycin 0.6 μM, 1 hr, relative to wildtype no drug
Protocol: as §4
(§5) In other experiments, the alg 7 and vmr007 heterozygous deletion strains were tested for induction of the stress response in the presence of 0.6 μM tunicamycin for 1 hr (for detailed methods see Example 4). The numbers indicate the fold induction (positive values) or the fold repression (negative values) relative to that of wildype expression in the absence of drug.

[6] = system: ymr007w heterozygous strain; assay: as above; format: cell-based, Saccharomyces cerevisiae; settings: ymr007w heterozygote, tunicamycin 0.6 μM, 1 hr, relative to wildtype no drug
Protocol: as §4, §5

[7] = TUN 0.6 μM, wildtype, relative to no drug
[8] = Wildtype, tunicamycin 0.6 μM, 1 hr, relative to wildtype no drug (Table 9)

## COS(C)(=O)=O [MMS]
[1]
  fold induction of AMS1 (YGL156W): 3.3 fold
  fold induction of DDR48 (YMR173w): 6 fold
  fold induction of GFA1 (YKL104C): 3.3 fold
  fold induction of GSC2 (YGR032W): 2.5 fold
  fold induction of HSP10 (YOR020C): 1 fold
  fold induction of HSP12 (YFL014W): 4.2 fold
  fold induction of HSP26 (YBR072W): 2.6 fold
  fold induction of HSP30 (YCR021C): 2 fold
  fold induction of HSP42 (YDR171w): 1.5 fold
  fold induction of HSP60 (YLR259C): 1 fold
  fold induction of HSP78 (YDR258C): 2.8 fold
  fold induction of HSP82 (YPL240C): 1.8 fold
  fold induction of HSP104 (YLL026W): 2 fold
  fold induction of HXT5 (YHR096C): 1.9 fold
  fold induction of ISF1 (YMR081C): 2.9 fold
  fold induction of PAI3 (YMR174C): 5.1 fold
  fold induction of PRY1 (YJL079C): 1 fold
  fold induction of PUT1 (YLR142W): 1 fold
  fold induction of SNZ3 (YFL059W): 2.3 fold
  fold induction of SSA1 (YAL005C): 6.4 fold
  fold induction of TSI1 (YLR178C): 5.7 fold
  fold induction of UBC5 (YDR059c): 5.5 fold
  fold induction of YBL049W: 1 fold
  fold induction of YDR018C: 1 fold
  fold induction of YFL030W: 5 fold
  fold induction of YFR026C: 2.2 fold
  fold induction of YGR043C: 3.5 fold
  fold induction of YIL042C: 1.4 fold
  fold induction of YIL117C: 2.3 fold
  fold induction of YJL144W: 1.6 fold
  fold induction of YKL107W: 1.7 fold
  fold induction of YLR053C: 1 fold
  fold induction of YLR080W: 5.6 fold
  fold induction of YLR194C: 1 fold
  fold induction of YMR040W: 1.5 fold
  fold induction of YMR090W: 8 fold
  fold induction of YMR107W: 1 fold
  fold induction of YNL194C: 2.9 fold
  fold induction of YPS3 (YLR121C): 1 fold

## CCCCNC(=O)n1c(NC(=O)OC)nc2ccccc21 [benomyl]
Wildtype strain [2]
  fluorescent activity from hsp26 reporter construct: F
his3 heterozygote
  fluorescent activity from hsp26 reporter construct: F
tub2 heterozygote
  fluorescent activity from hsp26 reporter construct: NF
alg7 heterozygote
  fluorescent activity from hsp26 reporter construct: F
tub2 heterozygous strain
  sensitivity of strain to drug: sensitive

## tunicamycin
Wildtype strain [3]; [7]
  fold induction of AMS1 (YGL156W): 20 fold
  fold induction of DDR48 (YMR173w): 4.3 fold
  fold induction of GFA1 (YKL104C): 11.2 fold
  fold induction of GSC2 (YGR032W): 9.2 fold
  fold induction of HSP10 (YOR020C): 2 fold
  fold induction of HSP12 (YFL014W): 2.9 fold
  fold induction of HSP26 (YBR072W): 18 fold
  fold induction of HSP30 (YCR021C): 2 fold
  fold induction of HSP42 (YDR171w): 6 fold
  fold induction of HSP60 (YLR259C): 1 fold
  fold induction of HSP78 (YDR258C): 6.5 fold
  fold induction of HSP82 (YPL240C): 2.8 fold
  fold induction of HSP104 (YLL026W): 2 fold
  fold induction of HXT5 (YHR096C): 200 fold
  fold induction of ISF1 (YMR081C): 3.5 fold
  fold induction of PAI3 (YMR174C): 6.1 fold
  fold induction of PRY1 (YJL079C): 13 fold
  fold induction of PUT1 (YLR142W): 25 fold
  fold induction of SNZ3 (YFL059W): 25 fold
  fold induction of SSA1 (YAL005C): 1 fold
  fold induction of TSI1 (YLR178C): 6.2 fold
  fold induction of UBC5 (YDR059c): 2.1 fold
  fold induction of YBL049W: 15 fold
  fold induction of YDR018C: 7.5 fold
  fold induction of YFL030W: 11 fold
  fold induction of YFR026C: 20.9 fold
  fold induction of YGR043C: 17 fold
  fold induction of YIL042C: 5 fold
  fold induction of YIL117C: 13 fold
  fold induction of YJL144W: 19.1 fold
  fold induction of YKL107W: 112 fold
  fold induction of YLR053C: 200 fold
  fold induction of YLR080W: 8.4 fold
  fold induction of YLR194C: 5.1 fold
  fold induction of YMR040W: 12.8 fold
  fold induction of YMR090W: 5.6 fold
  fold induction of YMR107W: 79 fold
  fold induction of YNL194C: 4.5 fold
  fold induction of YPS3 (YLR121C): 15 fold
Wildtype strain [3]; [8]
  fold induction (positive) or fold repression (negative) of HSP26 (YBR072W): 17 fold
  fold induction (positive) or fold repression (negative) of HXT5 (YHR096C): 50 fold
  fold induction (positive) or fold repression (negative) of YGR043C: 17 fold
  fold induction (positive) or fold repression (negative) of YMR107W: 40 fold
  fold induction (positive) or fold repression (negative) of YPS3 (YLR121C): 15 fold
Wildtype strain [2]
  fluorescent activity from hsp26 reporter construct: F
ymr007w strain
  sensitivity of strain to drug: sensitive
his3 heterozygote
  fluorescent activity from hsp26 reporter construct: F
tub2 heterozygote
  fluorescent activity from hsp26 reporter construct: F
alg7 heterozygote
  fluorescent activity from hsp26 reporter construct: NF
alg7 heterozygous strain [4]
  sensitivity of strain to drug: sensitive
alg7 heterozygous strain [5]
  fold induction (positive) or fold repression (negative) of HXT5 (YHR096C): 1 fold
  fold induction (positive) or fold repression (negative) of YMR107W: 1 fold
[6]
  fold induction (positive) or fold repression (negative) of HSP26 (YBR072W): 1.4 fold
  fold induction (positive) or fold repression (negative) of HXT5 (YHR096C): 1 fold
  fold induction (positive) or fold repression (negative) of YMR107W: 1 fold
